Earlier results in patent EP4473960A1, “VACCINE FORMULATION COMPRISING A SURFACTANT THAT DOES NOT COMPRISE AN ESTER BOND” (Vaxxinova Nederland BV, priority 2023, dated 2024).
Read-outs that look alike come from different tables or passages of the source.

[1] = Table 2, surfactants without ester bond
[2] = Table 3A, HLB values of surfactants discussed

Row | Substance | HLB [1] | HLB [2] | Hydrophilic-Lipophilic Balance (HLB)
1 | Polyoxyethylen (9) laurylether [Thesit] | 11.2 |  | 
2 | Polyoxyethylen (10) tridecylether | 13.7 |  | 
3 | Sorbitan tristearate [Span 65] |  | 2,2 | 
4 | Polyoxyethylen (2) oleylether [Brij 92] | 4,9 | 4,9 | 
5 | Polyoxyethylen (4) laurylether [Brij 30] | 9,7 | 9,7 | 
6 | Sorbitan stearate [Span 60] |  | 4,7 | 
7 | Sorbitan monooleate [Span 80] |  | 4,3 | 4,3
8 | Sorbitan palmitate [Span 40] |  | 6.7 | 
9 | Polyoxyethylen (6) cetylstearylether [Cremophor A6] | 10-12 | 10 - 12 | 
10 | Polyoxyethylen (2) stearylether [Brij 72] | 4,9 | 4,9 | 
11 | Polyoxyethylen (10) monodecylether | 14.6 |  | 
12 | Polyoxyethylen (25) cetylstearylether [Cremophor A25] | 15-17 | 15-17 | 
13 | Polyoxyethylen (20) cetylstearylether [Cremophor A20] | 14-16 |  | 
14 | Polyoxyethylen (2) cetylether [Brij 52] | 5,3 | 5,3 | 
